The structures appear in SMILES notation.

Usually IC50 stands for the midpoint of a concentration-inhibition curve.

One experiment concerns the target T1, KDM4C (Homo sapiens, UniProt Q9H3R0).
T1 construct: Full length; host or cells: U2OS
T1 sequence (Q9H3R0 1-1056): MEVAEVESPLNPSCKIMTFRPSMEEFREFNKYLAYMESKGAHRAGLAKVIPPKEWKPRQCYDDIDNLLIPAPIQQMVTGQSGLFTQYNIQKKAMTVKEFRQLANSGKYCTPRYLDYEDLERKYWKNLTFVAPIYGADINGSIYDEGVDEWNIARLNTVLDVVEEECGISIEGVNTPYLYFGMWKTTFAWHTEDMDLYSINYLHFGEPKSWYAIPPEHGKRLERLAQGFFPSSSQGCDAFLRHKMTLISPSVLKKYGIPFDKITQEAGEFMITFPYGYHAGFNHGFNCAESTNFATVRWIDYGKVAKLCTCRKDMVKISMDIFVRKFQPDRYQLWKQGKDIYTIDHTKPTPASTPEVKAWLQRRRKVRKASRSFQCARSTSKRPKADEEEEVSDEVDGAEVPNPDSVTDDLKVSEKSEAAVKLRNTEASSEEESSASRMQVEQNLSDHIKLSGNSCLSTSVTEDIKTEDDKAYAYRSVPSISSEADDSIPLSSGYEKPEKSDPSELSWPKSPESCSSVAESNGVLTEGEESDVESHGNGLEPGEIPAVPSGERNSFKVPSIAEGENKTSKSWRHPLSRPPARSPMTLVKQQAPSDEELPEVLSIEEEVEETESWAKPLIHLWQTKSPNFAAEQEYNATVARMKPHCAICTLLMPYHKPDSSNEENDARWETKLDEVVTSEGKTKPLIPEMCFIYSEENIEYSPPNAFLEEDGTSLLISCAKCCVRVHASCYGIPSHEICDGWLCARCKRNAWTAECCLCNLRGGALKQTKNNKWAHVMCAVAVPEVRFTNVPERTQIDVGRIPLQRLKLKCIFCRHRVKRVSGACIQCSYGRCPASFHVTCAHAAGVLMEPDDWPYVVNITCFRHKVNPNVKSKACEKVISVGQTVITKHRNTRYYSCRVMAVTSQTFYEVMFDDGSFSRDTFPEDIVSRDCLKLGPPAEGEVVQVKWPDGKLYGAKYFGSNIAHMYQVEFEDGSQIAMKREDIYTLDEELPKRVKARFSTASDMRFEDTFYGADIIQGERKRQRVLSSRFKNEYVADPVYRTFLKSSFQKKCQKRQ
The experiment is described as follows: Histone lysine demethylase immunofluorescence assay, U2OS cells transfected with KDM4C. It counts as cell-based. The conditions noted are these: U2OS cells transfected with pCMVHA KDM4C; mark detected H3K9me3; 20 hours. Here is the method:
(§1) U2OS cells were seeded 24 hours before transfection. Transfection was performed with Fugene HD transfection reagent as recommended by the manufacturer. 6 hours after transfection, the cells were harvested and seeded into multi well plates into media containing compound. The media used was DMEM containing 10% FBS and pen/strep. 20 hours after incubation of cells with compounds, the cells were washed in PBS, harvested by fixation with formaldehyde 4% aqueous solution, and washed in PBS. Subsequently, the cells were permeabilized in PBS with 0.2% Triton X-100 for. Blocking was performed in PBS with 0.2% Triton X-100 and 5% FBS. The cells were incubated with primary antibodies in blocking solution over night at 4° C. The primary antibodies used in the assays were HA.11 (Covance, MMS-101P) and the antibody detecting the mark specified in the table below. After incubation with primary antibodies, the cells were washed with PBS, incubated with secondary antibodies (Alexa fluor 594 goat anti rabbit IgG, Invitrogen, A11012; Alexa flour 488 donkey anti mouse IgG, Invitrogen, A21202) and Hoechst, (Sigma, 33342) in blocking solution, and washed again with PBS. Finally, PBS was added and high throughput imaging and analysis were performed by an IN Cell Analyzer 1000 (GE Healthcare). The robot software analyzed individual cells and divided these into HA+ (transfected cells) and HA− (non-transfected cells). The IC50 values were based on an average measure of the staining of the mark specified in the table below in the transfected cells.

The next experiment addresses T2, KDM5B (Homo sapiens, UniProt Q9UGL1).
T2 construct: (a.a. 1-752); host or cells: U2OS
T2 sequence (Q9UGL1 1-752): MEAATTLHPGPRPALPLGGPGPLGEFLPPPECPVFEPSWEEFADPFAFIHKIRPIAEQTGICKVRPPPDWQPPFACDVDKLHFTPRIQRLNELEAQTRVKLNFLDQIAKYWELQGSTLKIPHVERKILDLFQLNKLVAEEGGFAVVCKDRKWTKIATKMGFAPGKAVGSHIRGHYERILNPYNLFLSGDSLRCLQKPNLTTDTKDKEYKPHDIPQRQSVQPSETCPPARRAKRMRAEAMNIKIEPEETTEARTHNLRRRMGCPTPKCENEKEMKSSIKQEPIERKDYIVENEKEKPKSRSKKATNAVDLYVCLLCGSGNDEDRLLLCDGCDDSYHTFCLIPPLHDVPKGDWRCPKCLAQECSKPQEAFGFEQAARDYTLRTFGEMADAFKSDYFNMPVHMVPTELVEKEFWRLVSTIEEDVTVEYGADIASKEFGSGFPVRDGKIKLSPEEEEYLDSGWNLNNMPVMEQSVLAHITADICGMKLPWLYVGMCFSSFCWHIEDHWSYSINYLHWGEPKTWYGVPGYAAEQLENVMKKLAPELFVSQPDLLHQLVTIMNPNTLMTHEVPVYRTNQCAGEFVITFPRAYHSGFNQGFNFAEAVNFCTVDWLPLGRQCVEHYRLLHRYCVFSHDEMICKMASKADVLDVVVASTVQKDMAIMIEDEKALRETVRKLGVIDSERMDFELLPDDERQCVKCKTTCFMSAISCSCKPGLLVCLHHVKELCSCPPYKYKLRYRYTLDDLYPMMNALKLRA
In words: Histone lysine demethylase immunofluorescence assay, U2OS cells transfected with KDM5B. The class given is cell-based. The conditions noted are these: U2OS cells transfected with pCMVHA KDM5B; mark detected H3K4me2; 20 hours. On the procedure:
as §1

Another experiment deals with T3, KDM2A (Homo sapiens, UniProt Q9Y2K7).
T3 construct: Full length; host or cells: U2OS
T3 sequence (Q9Y2K7 1-1162): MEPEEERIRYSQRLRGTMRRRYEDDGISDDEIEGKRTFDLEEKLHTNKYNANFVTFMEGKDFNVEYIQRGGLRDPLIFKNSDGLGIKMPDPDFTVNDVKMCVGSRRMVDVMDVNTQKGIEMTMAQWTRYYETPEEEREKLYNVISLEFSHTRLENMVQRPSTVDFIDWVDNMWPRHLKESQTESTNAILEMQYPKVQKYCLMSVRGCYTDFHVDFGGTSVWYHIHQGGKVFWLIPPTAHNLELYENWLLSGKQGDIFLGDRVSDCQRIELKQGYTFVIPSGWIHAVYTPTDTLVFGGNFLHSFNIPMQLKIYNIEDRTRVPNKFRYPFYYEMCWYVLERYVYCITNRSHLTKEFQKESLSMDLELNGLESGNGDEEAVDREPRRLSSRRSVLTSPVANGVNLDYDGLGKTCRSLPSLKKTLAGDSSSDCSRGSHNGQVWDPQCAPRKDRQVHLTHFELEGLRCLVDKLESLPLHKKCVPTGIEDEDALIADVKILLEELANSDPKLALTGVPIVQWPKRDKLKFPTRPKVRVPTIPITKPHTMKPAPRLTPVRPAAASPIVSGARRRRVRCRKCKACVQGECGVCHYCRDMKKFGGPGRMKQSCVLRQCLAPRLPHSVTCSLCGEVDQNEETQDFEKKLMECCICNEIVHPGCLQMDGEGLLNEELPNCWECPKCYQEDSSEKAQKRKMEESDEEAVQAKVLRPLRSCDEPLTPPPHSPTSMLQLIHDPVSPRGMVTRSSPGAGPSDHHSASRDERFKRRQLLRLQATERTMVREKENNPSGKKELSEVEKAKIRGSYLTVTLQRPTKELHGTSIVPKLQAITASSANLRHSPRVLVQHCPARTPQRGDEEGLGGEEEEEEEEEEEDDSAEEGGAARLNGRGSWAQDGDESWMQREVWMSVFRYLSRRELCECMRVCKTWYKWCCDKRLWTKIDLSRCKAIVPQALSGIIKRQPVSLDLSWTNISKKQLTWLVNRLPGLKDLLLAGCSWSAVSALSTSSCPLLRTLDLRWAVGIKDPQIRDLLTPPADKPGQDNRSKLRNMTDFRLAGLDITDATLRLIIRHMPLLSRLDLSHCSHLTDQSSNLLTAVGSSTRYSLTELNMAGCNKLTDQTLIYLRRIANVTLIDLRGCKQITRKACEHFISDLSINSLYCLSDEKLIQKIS
In words: Histone lysine demethylase immunofluorescence assay, U2OS cells transfected with KDM2A. It counts as cell-based. To be noted: U2OS cells transfected with pCMVHA KDM2A; mark detected H3K36me2; 20 hours. Here is the method:
as §1

Experiment [1] relates to OPM-2 subcutaneous mouse xenograft model of multiple myeloma. The experiment is described as follows: Inhibition of tumor growth in mouse xenograft model. It counts as in vivo, NOD/SCID mice (Mus Musculus). The conditions noted are these: QD × 4/week × 2. The source says: Briefly, NOD/SCID mice γ-irradiated with ^60Co (200 rad) (12 animals/group) were inoculated subcutaneously with 8×10^6 OPM-2 cells assisted with Matrigel. Dosing according to the table below started when tumors reached an average size of ˜100 mm^3 (day 15). Dosing continued until the average size of tumors in the vehicle group reached ˜2000 mm^3 (day 31).
Animals were 7 weeks old female NOD/SCID mice (Mus Musculus), supplied by Beijing HFK Bio-Technology Co. Ltd. (Beijing, china). Body weight was approx. 16-23 g. Before commencement of treatment, all animals were weighed and tumor volumes were measured, and mice were assigned into groups using randomized block design based upon their tumor volumes.
OPM-2 tumor cells were maintained in vitro in RPMI1640 medium supplemented with 20% fetal bovine serum at 37° C. in an atmosphere of 5% CO2 in air. The tumor cells were routinely subcultured twice weekly. The cells growing in an exponential growth phase were harvested and counted for tumor inoculation.
Tumor sizes were measured three times weekly in two dimensions using a caliper, and the volume was expressed in mm^3 using the formula: V=0.5 a×b^2 where a and b were the long and short diameters of the tumor, respectively.

On to `CN(CCc1ccccc1)C(=O)CNCc1cc(/C=N/CCO)ccn1` [Compound 96, 2-[{4-[([(2-hydroxyethyl)imino]-methyl]pyridin-2-yl}methyl)amino]-N-methyl-N-(2-phenylethyl)acetamide], for which the IC50 on KDM4C, on KDM5B and against KDM2A was over 2500 nM throughout.

With `Nc1cccc2c1CN(C1CCC(=O)NC1=O)C2=O` (centres unmarked) [Lenolidomide, reference compound], the “Tumor Volume” value stood at 101 ± 12 mm^3 in experiment [1] (day 15 after inoculation (start of dosing)); 156 ± 26 mm^3 in experiment [1] (day 17 after inoculation); 178 ± 36 mm^3 in experiment [1] (day 19 after inoculation); 266 ± 56 mm^3 in experiment [1] (day 21 after inoculation); 395 ± 92 mm^3 in experiment [1] (day 24 after inoculation); 509 ± 116 mm^3 in experiment [1] (day 26 after inoculation). For the same compound, the “Tumor Volume” value in experiment [1] (day 28 after inoculation) is reported as 767 ± 169 mm^3; in experiment [1] (day 31 after inoculation), 1148 ± 175 mm^3.

For the origin of these results see patent US9650339B2, “Inhibitors of histone demethylases” (Gilead Sciences, Inc., priority 2013, dated 2017).
